The text below walks through data of patent publication US20100113430A1, “THIOXANTHENE DERIVATES USEFUL TO TREAT INFECTIOUS DISEASES” (BKG PHARMA APS, priority 2007, published 2010).

≈ marks a conversion by molar mass, not a printed value.

What all share (type): cell-based
The subject of test [1] is Fluconazole Resistant Candida albicans clinical isolate. The test can be described thus: MIC (80% growth inhibition), broth microdilution NCCLS M27-A, fluconazole resistant Candida albicans. Particulars: Candida albicans. The procedure:
The antimicrobial effect of N-dealkyl-trans-clopenthixol and N-dealkyl-trans-flupenthixol was studied by exposing cells to 0-8 μg/ml of the compounds in two-fold dilutions. Each experiment was repeated in triple duplicate. MIC values represent the mean values of two separate experiments.
Clinical Isolate of A Fluconazole Resistant Candida albicans from a Patient with Candidemia.
The isolates were subcultured for 24 h on Sabouraud glucose agar before susceptibility testing. Broth microdilution tests were performed according to NCCLS document M27-A (Ref: National Commitee for Clinical Laboratory Standards. (1997). Reference Method for Broth Dilution Antifungal Susceptibility Testing of Yeasts: Approved Standard M27-A. NCCLS, Wayne, Pa.)
Microtitre plates were read spectrophotometrically at 530 nm, after mixing the wells by pipetting to resuspend yeast sediments. The MIC was defined as the lowest drug dilution resulting in 80% growth inhibition.

Test [2] concerns multiresistant clinical isolate of Staphylococcus epidermidis. The test can be described thus: MIC, microdilution broth method (NCCLS), Staphylococcus epidermidis. On the procedure: (§1) Cell growth was tested using the Minimal Inhibitory Concentration (MIC) susceptibility tests by use of the microdilution broth method in accordance to the NCCLS Guidelines (NCCLS Guidelines, Methods for Dilution Antimicrobial Susceptibility Tests for Bacteria That Grow Aerobically; Approved Standard, Sixth Edition, Volume 23; Number 2). The minimum inhibitory concentration (MIC), is defined ad the lowest concentration of drug which inhibits growth of the test organism, in the sense that no visible growth is detected (total inhibition of growth). In example 2 MIC of the compounds used on fungal microorganisms was determined from the IC90 measurements according to NCCLS Guidelines.
A log phase culture of bacteria was diluted with fresh pre-warmed Mueller-Hinton medium and adjusted to a defined OD at 600 nm in order to give a final concentration of 1×10^4-5 bacteria/ml medium. The bacterial culture was transferred to microtiter-plates and culture was added to each well. […] Trays were incubated at 37° C. by shaking in a robot analyzer, PowerWavex, software KC^4′ Kebo.Lab, Copenhagen, for 16 h and optical densities were measured at 600 nm during the incubation time in order to record growth curves. Wells containing bacterial culture without drug were used as controls to ensure correct inoculum size and bacterial growth during the incubation. Cultures were tested in order to detect contaminations. Each experiment was repeated in triplicate.
A clinically relevant isolate of Staphylococcus epidermidis was cultured and assayed as described above for susceptibility towards the compounds listed in table 1.
(In general: Broth dilution looks for growth in wells or tubes with falling amounts of substance.)

The subject of test [3] is Staphylococci, Micrococci. Including MRSA. As to the kind of experiment: MIC/IC90 broad spectrum, Staphylococci and Micrococci. Particulars: 30 strains, 20 resistant (20 MRSA). The procedure:
as §1
(§2) A log phase culture of bacteria was diluted with fresh pre-warmed Mueller-Hinton medium and adjusted to a defined OD at 600 nm in order to give a final concentration of 1×10^4-5 bacteria/ml medium. The bacterial culture was transferred to microtiter-plates and culture was added to each well. Drug was added to the bacterial culture in the wells as two-fold dilution series of drug in order to give final concentrations ranging from 0.03 to 128 μg/ml. Trays were incubated at 37° C. by shaking in a robot analyzer, PowerWavex, software KC^4′ Kebo.Lab, Copenhagen, for 16 h and optical densities were measured at 600 nm during the incubation time in order to record growth curves. Wells containing bacterial culture without drug were used as controls to ensure correct inoculum size and bacterial growth during the incubation. Cultures were tested in order to detect contaminations. Each experiment was repeated in triplicate. MIC values represent the mean values of two separate triplicate experiments. Intra- and interassay variation was <5%.
(§3) Inhibition 90 (IC90) is defined as: OD responding a 90% growth inhibition.
(§4) A broad spectrum of bacteria were cultured and assayed as described above for susceptibility towards N-dealkyl-clopenthixol.

Test [4] has as its system Streptococci. The test can be described thus: MIC/IC90 broad spectrum, Streptococci. Particulars: 30 strains, 20 resistant. On the procedure: as §1, §2, §3, §4
For test [5], the system named is Gram negative sp. The test can be described thus: MIC/IC90 broad spectrum, Gram negative sp. Particulars: 25 strains, 20 resistant. The procedure:
as §1, §2, §3, §4

For test [6], the system named is Enterococcus faecium resistant clinical isolates. The test can be described thus: MIC/IC90, resistant clinical isolates of Enterococcus faecium. On the procedure: as §1, §2
Inhibition 90 (IC90) is defined as: OD responding a 90% growth inhibition. […]
(§5) Clinically relevant isolates were cultured and assayed as described above.

The test system of test [7] is Candida glabrata Multiresistant isolate. The test can be described thus: MIC of cis- and trans-forms, Candida glabrata multiresistant isolate. As to conditions: Example 4. The procedure: as §1
Cultured microorganisms were assayed as described above. Cis- and trans-isomers of N-dealkyl-clopenthixol was added to the cultures.

The subject of test [8] is Enterococcus faecalis resistant clinical isolates. The test can be described thus: MIC/IC90, resistant clinical isolates of Enterococcus faecalis. On the procedure:
as §1, §2, §3, §5

Test [9] concerns clinically relevant resistant bacterial isolate S. Aureus. As to the kind of experiment: Growth inhibition by cis/trans combinations, resistant isolate S. Aureus. As to conditions: Cis-compound 16 μg/ml, Trans-compound 0 μg/ml. On the procedure:
as §1
as §2, with “Wells containing bacterial culture without drug were used as controls to ensure correct inoculum size and bacterial growth during the incubation. Cultures were tested in order to detect contaminations. Each experiment was repeated in triplicate. MIC values represent the mean values of two separate triplicate experiments. Intra- and interassay variation was <5%.” left out

The subject of test [10] is Candida albicans clinical isolate. As to the kind of experiment: MIC (90% growth inhibition), broth microdilution NCCLS M27-A, Candida albicans. As to conditions: strain 1. Candida albicans FR (fluconazole resistant). On the procedure:
as §1
The antibacterial effect of demethylated/dealkylated phenothiazine or thioxanthene compounds were studied by growth inhibition studies exposing cells to 0-32 μg/ml of drug. Each experiment was repeated in triplicate. MIC values represent the mean values of two separate triplicate experiments.
(§6) 4 clinical isolates of Candida sp. (including 3 fluconazole resistant isolates) were subcultured for 24 h on Sabouraud glucose agar before susceptibility testing. Broth microdilution tests were performed according to NCCLS document M27-A (Ref: National Committee for Clinical Laboratory Standards. (1997). Reference Method for Broth Dilution Antifungal Susceptibility Testing of Yeasts: Approved Standard M27-A. NCCLS, Wayne, Pa.). Microtitre plates were read spectrophotometrically at 530 nm, after mixing the wells by pipetting to resuspend yeast sediments. In this experiment, the MIC was defined as the lowest drug dilution resulting in 90% growth inhibition.

The test system of test [11] is Candida glabrata clinical isolates. The test can be described thus: MIC (90% growth inhibition), broth microdilution NCCLS M27-A, Candida glabrata. On the procedure:
as §1, with “Guidelines. […]” for “Guidelines.”
as §6

[12] abbreviates: multiresistant clinical isolate of Staphylococcus epidermidis, Example 1.
The mark [13] stands for this setting: strain 2. Candida glabrata FR (fluconazole resistant).
Where [14] appears, read: strain 4. Candida glabrata FR (fluconazole resistant).

In [1], `OC(Cn1cncn1)(Cn1cncn1)c1ccc(F)cc1F` [Fluconazole, reference compound] had an MIC of 128 µg/mL (≈ 418 µM).

In the case of `Clc1ccc2c(c1)/C(=C\CCN1CCNCC1)c1ccccc1S2` [N-dealkyl-cis-clopenthixol, cis-1-(3-(2-chlorothioxanthen-9-ylidene)propyl)piperazine], the MIC is over 8 µg/mL in [2] (Staphylococcus epidermidis multiresistant isolate, Example 6, isomers alone and 1:1 mixture); 16 µg/mL (≈ 44.8 µM) in test [2] (setting [12]); over 8 µg/mL in [6] (Enterococcus faecium 11, VanA); over 8 µg/mL in [6] (Enterococcus faecium 12, VanA); over 8 µg/mL in [6] (Enterococcus faecium 13, VanB); over 8 µg/mL in test [6] (Enterococcus faecium 14, HLAR). Further, the MIC in test [6] (Enterococcus faecium 15, HLAR) is over 8 µg/mL; in [6] (Enterococcus faecium 16, BLR, CR), over 8 µg/mL; in test [6] (Enterococcus faecium 17, VanB), over 8 µg/mL; in [6] (Enterococcus faecium 18, VanB), over 8 µg/mL; in [6] (Enterococcus faecium 19, VanB) it was over 8 µg/mL; in test [6] (Enterococcus faecium multiresistant isolate, Example 4) it was 16 µg/mL (≈ 44.8 µM). The MIC in test [7] is over 16 µg/mL; in test [8] (Enterococcus faecalis 1, VanA) it was over 8 µg/mL; in test [8] (Enterococcus faecalis 2, VanA) it was over 8 µg/mL; in test [8] (Enterococcus faecalis 3, VanA), over 8 µg/mL; in [8] (Enterococcus faecalis 4, VanB) it was over 8 µg/mL; in [8] (Enterococcus faecalis 5, Van B) it was over 8 µg/mL. For the same molecule, the MIC was over 8 µg/mL in test [8] (Enterococcus faecalis 6, VanB); over 8 µg/mL in test [8] (Enterococcus faecalis 7, VanA); over 8 µg/mL in test [8] (Enterococcus faecalis 8, HLAR); over 8 µg/mL in test [8] (Enterococcus faecalis 9, HLAR); over 8 µg/mL in test [8] (Enterococcus faecalis 10, BLR, CR). Also, the entries for the “MIC (mean)” value in test [3], in test [4] and in [5] were 16 µg/mL (≈ 44.8 µM), 16 µg/mL (≈ 44.8 µM) and over 16 µg/mL, respectively. The Growth inhibition in test [9] is 100%.

`Fc1ccc2c(c1)C(=CCCN1CCNCC1)c1ccccc1S2` [N-dealkyl-cis-flupenthixol, cis-1-(3-(2-fluor-thioxanthen-9-ylidene)propyl)piperazine] showed an MIC in test [2] (setting [12]) of 16 µg/mL (≈ 47 µM).

As for `FC(F)(F)c1ccc2c(c1)N(CCCN1CCNCC1)c1ccccc1S2` [N-deshydroxy-ethyl-Fluphenazine, reference compound], the MIC in test [2] (setting [12]) worked out at 16 µg/mL (≈ 40.7 µM).

As for `CNCCC=C1c2ccccc2Sc2ccc(Cl)cc21` [N-desmethyl-Chlorprothixen, reference compound], the MIC in test [2] (setting [12]), in test [10], in test [11] (setting [13]), in test [11] (setting [14]) and in test [11] (strain 5. Candida glabrata) was 16 µg/mL (≈ 53 µM) in each case.

As for `CNCCCN1c2ccccc2Sc2ccc(Cl)cc21` [N-desmethyl-chlorpromazine, reference compound], in test [2] (setting [12]), the MIC is 16 µg/mL (≈ 52.5 µM).

As to “Desmethyl-perphenazin [reference compound]”, the MIC in test [2] (setting [12]), in test [10], in test [11] (setting [13]), in [11] (setting [14]) and in test [11] (strain 5. Candida glabrata) was 16 µg/mL throughout.

One may read the MIC as the lowest concentration that inhibits growth of the organism.
